The record followed here is BindingDB's records for doi:10.1016/j.ejmech.2020.113107 (Yantai University, 2021).

Data set [1] can be described thus: Reversal of P-glycoprotein mediated multidrug resistance in human MCF-7T cells assessed as reversal of resistance to paclitaxel-induced cytotoxicity by measuring paclitaxel IC50 at 10 uM measured after 72 hrs by MTT assay.
The nature of data set [2]: Reversal of P-glycoprotein mediated multidrug resistance in human MCF-7T cells assessed as reversal of resistance to vincristine-induced cytotoxicity by measuring vincristine IC50 at 10 uM measured after 72 hrs by MTT assay. (Formazan colour is commonly taken as a measure of viable cells.)
Data set [3] in a line: Reversal of P-glycoprotein mediated multidrug resistance in human KBV cells assessed as reversal of resistance to paclitaxel-induced cytotoxicity by measuring paclitaxel IC50 at 10 uM measured after 72 hrs by MTT assay.
Data set [4] in a line: Reversal of P-glycoprotein mediated multidrug resistance in human KBV cells assessed as reversal of resistance to paclitaxel-induced cytotoxicity by measuring paclitaxel IC50 at 5 uM measured after 72 hrs by MTT assay.
Data set [5] can be described thus: Reversal of P-glycoprotein mediated multidrug resistance in human MCF-7T cells assessed as reversal of resistance to paclitaxel-induced cytotoxicity by measuring paclitaxel IC50 at 5 uM measured after 72 hrs by MTT assay.
Data set [6] in a line: Reversal of P-glycoprotein mediated multidrug resistance in human KBV cells assessed as reversal of resistance to vincristine-induced cytotoxicity by measuring vincristine IC50 at 5 uM measured after 72 hrs by MTT assay.
The nature of data set [7]: Reversal of P-glycoprotein mediated multidrug resistance in human KBV cells assessed as reversal of resistance to vincristine-induced cytotoxicity by measuring vincristine IC50 at 10 uM measured after 72 hrs by MTT assay.
The nature of data set [8]: Reversal of P-glycoprotein mediated multidrug resistance in human MCF-7T cells assessed as reversal of resistance to vincristine-induced cytotoxicity by measuring vincristine IC50 at 5 uM measured after 72 hrs by MTT assay.

As a reminder, the IC50 is the concentration that gives 50% inhibition. Regarding `COc1cc2c(cc1OC)CN(CCc1ccc(NC(=O)c3cc(OC)c(OC)cc3NC(=O)c3cnc4ccccc4c3)cc1)CC2`, the IC50 is 0.26 nM in data set [1]; 0.22 nM in data set [2]; 4.5 nM in data set [3]; 7.6 nM in data set [4]; 3.3 nM in data set [5]; 3.3 nM in data set [6]. The IC50 in data set [7] amounted to 2.1 nM; in data set [8], 0.71 nM.
As for `CC1(C)CC[C@]2(C(=O)OCc3ccccc3)CC[C@]3(C)C(=CC[C@@H]4[C@@]5(C)Cc6nccnc6[C@@](C)(CO)[C@@H]5CC[C@]43C)[C@@H]2C1`, the IC50 in data set [1] was 1.5 nM; in data set [2], 0.03 nM; in data set [3], 16 nM; in data set [4], 59 nM; in data set [5], 13 nM; in data set [6] it was 17 nM. The results for the IC50 in data set [7] and in data set [8] were 2.2 nM and 6.9 nM, respectively.
On to `CC1(C)CC[C@]2(C(=O)OCc3ccccc3)CC[C@]3(C)C(=CC[C@@H]4[C@@]5(C)Cc6nccnc6[C@@](C)(COC(=O)CCC(=O)OCCOCCOCCOCCO)[C@@H]5CC[C@]43C)[C@@H]2C1`, for which the IC50 in data set [1] was 0.89 nM; in data set [2], 0.04 nM; in data set [3], 4.6 nM; in data set [4], 22 nM; in data set [5], 5.4 nM; in data set [6] it was 4 nM. The figures for the IC50 in data set [7] and in data set [8] were 0.79 nM and 5.3 nM, respectively.
